# Experimental data reported in paper PMC3625590, “NBM-T-L-BMX-OS01, Semisynthesized from Osthole, Is a Novel Inhibitor of Histone Deacetylase and Enhances Learning and Memory in Rats” (Evidence-based Complementary and Alternative Medicine : eCAM, 2013).
# Legend:
# HEK293T cells = assay: CRE promoter-luciferase assay; format: cell-based
# Method: Supplemental Materials and Methods
# 2.1. HEK293T cells. HEK293T cells were maintained in Dulbecco’s modified Eagle’s medium (Invitrogen) supplemented with 10% fetal calf serum (Invitrogen). Cultures were maintained in a humidified 5% CO2-95% air atmosphere at 37°C.
# 2.2. Immunocytochemistry. Cultured hippocampal neurons were fixed with 4% paraformaldehyde for 15 min and permeablized with 0.1% Triton X-100 for 20 min at room temperature (RT). The primary Mouse anti-β III tubulin and anti-actin (Millipore) Abs were added for 1 h at RT. After wash, Alexa Fluor 488 […] Ab (Molecular Probes, Europe BV, Leiden, Netherlands) were incubated with cells for 1 h at RT. Coverslips were mounted, and images were obtained by using a Axio Observer D1 microscope (Zeiss, Jena, Germany). Neuronal process longer than […] is defined as neurites.
# 2.3. Western blot. […]
# The lysate was resolved by 8% SDS-PAGE. […] The protein bands were quantified using the NIH Image J Software. […]
# FBS. […] The activity of firefly luciferase was measured as firefly luciferase luminescence after reaction with luciferase reagent for 15 min. Next, the activity of Renilla luciferase is measured as Renilla luciferase luminescence after reaction with Stop & Glo reagent for 15 min.
# The ratio of firefly luciferase activity to Renilla luciferase activity was calculated and normalized to vector control.
# [1] = tested on: primary hippocampal neurons; assay: MTT cell survival assay; format: cell-based, Sprague-Dawley rats; conditions: 1, 2.5, 5 and 10 μM, DIV 5, 24 h
# Method: The primary hippocampal culture was prepared as described previously. To culture embryonic hippocampal primary neurons, pregnant Sprague-Dawley rats were purchased from the National Laboratory Center in Taiwan. The hippocampal tissue from the embryos of the Sprague-Dawley rats (E19) was dissociated with 100 U/mL of papain (Sigma-Aldrich) and plated onto poly-L-lysine-coated coverslips at a density of 1 × 10^4 cells/cm^2 with a minimal essential medium containing 5% calf serum, 5% horse serum, and 50 ng/mL insulin-transferrin-selenite (Sigma-Aldrich). Three hours after plating, the medium was replaced with 2% of a B27-neurobasal medium (Invitrogen, Carlsbad, CA, USA) containing 0.5 mM glutamine and 12.5 μM glutamate.
# Cell viability was evaluated by an MTT (3-(4,5-dimethylthiazol-2-yl)-2,5-diphenyl tetrazolium bromide, Sigma-Aldrich) assay 24 h after SAHA and BMX treatment at concentrations of 0, 1, 2.5, 5, and 10 μM. The protocol was performed as described previously. Cells were incubated with an MTT (0.5 mg/mL) reagent (Sigma-Aldrich) at 37°C for 1 h. The MTT solution was removed, and DMSO was added to the wells shaken at room temperature for 1 h. The amount of MTT formazan product was quantified by measuring its absorbance at 570 and 630 nm by using an ELISA plate reader (SpectraMax M2 Microplate Readers, Molecular Devices, Sunnyvale, CA, USA).
# [2] = tested on: histone 4 lysine 12 acetylation (AcH4K12); assay: Western blot of histone 4 lysine 12 acetylation in brain tissue after behavioural tests; format: in vivo, Sprague-Dawley rats; conditions: 5 mg/kg/d i.p.
# Method: The hippocampus tissue and primary hippocampal cells were lysed and sonicated in an RIPA buffer (50 mM Tris-HCl (pH 7.4), 150 mM NaCl, 2 mM EDTA, 1% IGEPAL CA-630, 1 mM phenylmethylsulfonyl fluoride (PMSF), 20 μg/mL pepstatin A, 20 μg/mL leupeptin, 20 μg/mL aprotinin, 50 mM NaF, and 1 mM Na3VO4). The protocol was performed as described previously. The lysate was resolved by 8% SDS-PAGE. The proteins resolved by SDS-PAGE were transferred to the PVDF membrane (Millipore, Bedford, MA, USA) and western blotting was conducted with the following antibodies: rabbit anti-acetyl histone 4 lysine 12 and mouse anti-histone 4 (Cell signaling, Danvers, MA, USA). The secondary antibodies used include the HRP-conjugated goat-anti-rabbit IgG antibody and HRP-conjugated goat-anti-mouse IgG antibody (Millipore). The membrane was developed by reacting with a chemiluminescent HRP substrate (Millipore) and exposure to X-ray film. The protein bands were quantified using the NIH Image J Software.
# HDAC8 = molecular target: T1, HDAC8 (Homo sapiens, UniProt Q9BY41); conditions: cited from earlier work
# T1 sequence (Q9BY41 1-377): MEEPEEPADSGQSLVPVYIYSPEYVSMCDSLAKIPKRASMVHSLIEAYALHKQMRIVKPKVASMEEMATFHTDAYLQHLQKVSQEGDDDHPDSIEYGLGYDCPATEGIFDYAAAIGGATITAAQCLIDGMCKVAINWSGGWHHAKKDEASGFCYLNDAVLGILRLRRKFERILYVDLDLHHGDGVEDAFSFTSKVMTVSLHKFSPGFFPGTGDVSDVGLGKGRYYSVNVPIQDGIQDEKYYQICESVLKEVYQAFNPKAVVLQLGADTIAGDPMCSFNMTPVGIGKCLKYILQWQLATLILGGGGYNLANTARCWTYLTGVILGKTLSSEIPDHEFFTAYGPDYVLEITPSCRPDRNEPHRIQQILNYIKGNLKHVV
smiles,measurement,setting,value
"O=C(CCCCCCC(=O)Nc1ccccc1)NO [SAHA, suberoylanilide hydroxamic acid, reference compound]",CRE-mediated promoter activity,HEK293T cells,increased
same,survival rate of primary hippocampal neurons (MTT),[1],"reduced the survival rate of the hippocampal neurons at concentrations of 2.5, 5, and 10 μM"
same,H4K12 acetylation in amygdala,[2]; 7 days after footshock,showed the highest H4K12 acetylation
same,H4K12 acetylation in hippocampus,[2]; after novel object recognition task,showed the highest H4K12 acetylation
same,H4K12 acetylation in hippocampus,[2]; after water-maze experiment,showed the highest H4K12 acetylation
same,inhibition of HDAC8 deacetylase activity,HDAC8,little inhibition of HDAC8
